# According to patent publication US11058654B2, “Compositions and methods for the treatment of hemoglobinopathies and thalassemias” (AXCELLA HEALTH INC., priority 2018, dated 2021):
# Tests used:
# Format in all cases: cell-based, human
# ICAM-1 = ICAM-1 cell integrated intensity in HLMVEC treated with TNFa; details: 0.5 ng/mL TNFα; amino acids at 20×; 24 hours; in words
# Source text: (§1) A VEC model was employed to assess the ability of amino acids to influence aspects of vascular dysfunction in SCD. TNFa treatment of healthy donor HLMVEC mimics the SCD disease state and induces expression of adhesion markers ICAM-1 and VCAM-1, and secretion of proinflammatory cytokine IL-6. It is established that levels of ICAM-1, VCAM-1, and IL-6 can contribute to SCD pathology and correlate with the incidence and severity of complications in SCD patients. The VEC model sought to test the ability of amino acids to reduce the TNFa-induced disease phenotype by lowering expression of adhesion markers (ICAM-1 and VCAM-1) and inflammatory cytokines (IL-6) while promoting VEC health and viability.
# Primary Human Lung Microvascular Endothelial Cells (HLMVEC; Lonza) were seeded at 6,000 cells per well in Endothelial Cell Growth Basal Medium-2 (Lonza) supplemented with Fetal Bovine Serum (FBS; Lonza), human EGF (Lonza), human VEGF (Lonza), R3-Insulin-like Growth Factor-1 (Lonza), ascorbic acid (Lonza), hydrocortisone (Lonza), human FGF-beta (Lonza), and gentamicin/amphotericin-b (Lonza) in a 96-well plate (Thermo Fisher). […]
# (§2) Antibody binding was detected by fluorescence microscopy using a high content imager (Molecular Devices). Images were analyzed using MetaXpress 6 software to determine the integrated intensity per cell for each wavelength corresponding to ICAM-1 or VCAM-1.
# [1] = system: sickle cell disease patient blood; assay: Reactive oxygen species (DCF fluorescence, H2O2) in sickle cell disease patient blood; details: treated with H2O2 and untreated in DPBS
# Protocol: (§3) Whole blood samples were appropriately diluted in Ca^2+- and Mg^2+-free Dulbecco's phosphate buffered saline (DPBS, Life Technologies) and the concentration of erythrocytes (RBC/ml) was measured on a Cellometer K2 Fluorescent Viability Cell Counter according to the manufacturer's RBC/AOPI protocol (Nexcelom Biosciences).
# (§4) Cells were then diluted to 1*10^6 RBC/ml into either prewarmed 37° C. […] 2′-7′-dichlorofluorescin diacetate (DCF, Millipore Sigma), 20 mM in dimethyl sulfoxide (DMSO, Fisher) were added to a working concentration of 100 μM. Cells were incubated with dye for 15 minutes at 37° C., 5% CO2 in a tissue culture incubator, washed once, and resuspended in the 0.9 volumes of the same prewarmed 37° C. buffer with 5 minute spins at 500× g, accel/decal=5 in a swing arm centrifuge (Beckman Coulter). […] Where possible due to solubility constrains, pH-7.4-adjusted stock solutions of amino acids were used. Wells were mixed by pipetting and plates incubated at 37° C., 5% CO2 in a tissue culture incubator for 30 minutes. Optionally, 40 mM H2O2(Millipore Sigma) freshly prepared in the same buffer was added to bring the concentration to 2 mM, wells mixed by pipetting, and plates were incubated an additional 30, 60, 120, or 240 minutes before fluorescence measurement of ROS signal on a Synergy H4 (BioTek) microplate reader with excitation=488 nm and emission=530 nm, and gain either set to autogain, 75, or 100.
# VCAM-1 = VCAM-1 cell integrated intensity in HLMVEC treated with TNFa; details: 0.5 ng/mL TNFα; amino acids at 20×; 24 hours; in words
# Source text: as §1
# Primary Human Lung Microvascular Endothelial Cells (HLMVEC; Lonza) were seeded at 6,000 cells per well in Endothelial Cell Growth Basal Medium-2 (Lonza) supplemented with Fetal Bovine Serum (FBS; Lonza), human EGF (Lonza), human VEGF (Lonza), R3-Insulin-like Growth Factor-1 (Lonza), ascorbic acid (Lonza), hydrocortisone (Lonza), human FGF-beta (Lonza), and gentamicin/amphotericin-b (Lonza) in a 96-well plate (Thermo Fisher). The cells were incubated for 45 minutes at room temperature, then incubated overnight at 37° C./5% CO2.
# Following overnight incubation, cell were washed once with 150 μL of Dulbecco's phosphate buffered saline (DPBS; Gibco), and then treated with Endothelial Basal Medium MCB-131 (amino acid, glucose, sodium pyruvate, and phenol red free; US Biologicals) containing a defined custom amino acid concentration based on physiological concentrations in blood of patients with SCD (thus recapitulating observed metabolic imbalances such as the depletion of certain essential amino acids including arginine and aspartate and enrichment of certain non-essential amino acids including glutamate and asparagine), dialyzed FBS (Hyclone), human EGF (Lonza), human VEGF (Lonza), R3-Insulin-like Growth Factor-1 (Lonza), ascorbic acid (Lonza), hydrocortisone (Lonza), human FGF-beta (Lonza), and gentamicin/amphotericin-b (Lonza), glucose, 10 mM HEPES, sodium pyruvate, and sodium bicarbonate supplemented with one of the following: • a. PBS (vehicle control), • b. 0.5 ng/mL Tumor Necrosis Factor alpha (TNFα) and PBS, or; • c. 0.5 ng/mL TNFα and amino acid treatments at 20× mean physiological concentrations in plasma based on values published in the Human Metabolome Database (HMDB) in PBS.
# After 24 hours of treatment, cells were washed once with 150 μL of DPBS (Gibco), then fixed with 4% paraformaldehyde. […]
# as §2
# [2] = system: whole blood of healthy control donors; assay: Reactive oxygen species (DCF fluorescence, H2O2) in whole blood of healthy controls; details: healthy control donors; treated with H2O2; dose-responsive
# Protocol: as §3, §4
structure (smiles),measurement,setting,value
"CC(=O)N[C@@H](CS)C(=O)O [N-Acetyl Cysteine, N-acetylcysteine]",TNF-α induced ICAM-1 expression levels in HLMVEC,ICAM-1,reduced levels of ICAM-1 expression to a lesser extent
same,ROS measured in whole blood,[1],reduced ROS
same,VCAM-1 expression in HLMVEC,VCAM-1,greatly reduced
same,ROS measured in whole blood,[2],reduced ROS
